Assay results reported in US20090005424A9, “Composition and Method for Treating Fibrotic Diseases” (priority 2005, published 2009).
Marks after values point to notes of the source that are not given here.

Columns and labels:
[1] = tested on: Human Peritoneal Mesothelial Cells; experiment: MTT proliferation assay, human peritoneal mesothelial cells; type: cell-based
Protocol: In the following examples, myocardiac fibroblasts, skin scar forming fibroblast and human peritoneal mesothelial cells are primary cultures prepared according to common procedure. Other cells are commercially purchased. 1-(3-fluorophenyl)-5-methyl-2(1H)-pyridone (AKF-PD) is prepared as a suspension in 5% carboxymethylcellulose.
(§1) Cell proliferation was measured by MTT assay. DMEM with 10% fetal serum was used as cell culture medium. The cells were prepared in suspension (1×10^5/ml), and 100 μL of the suspension was transferred to each well of a 96 wells plate. Once the cells were attached to the plastic, the culture was changed to serum free medium and incubated for another 24 hours. Then, the serum free medium was aspirated, and various concentrations of 1-(3′-fluorophenyl)-5-methyl-2(1H)-pyridone (AKF-PD) or PIRFENIDONE (PFD) in 10% serum medium were added into each well with 5 replicates for each concentration. The cells were stained with MTT (10 μL per well) at 12, 22, or 48 hours post drug treatment. After 4 hrs of incubation, the medium with MTT was aspirated from each well. One hundred μL MTT solvent was added to each well for 15 min, and the dissolved MTT was measured with a plate reader at 570 nm.

[2] = tested on: SD rat, renal interstitial fibrosis induced by surgical ligation of single side ureter; experiment: Rat ureter ligation model of renal interstitial fibrosis, AKF-PD vs PFD (Example 12); type: in vivo; details: ureter-ligated rats; PFD 500 mg/kg/d, AKF-PD 500 mg/kg/d by gavage; 14 days post surgery
Protocol: Anti-fibrotic effect of AKF-PD was tested on a SD rat model for renal interstitial fibrosis induced by surgical ligation of single side ureter. Male SD rats (180 g˜220 g) were randomly divided into disease model group, PFD (500 mg/kg/d) group and AKF-PD (500 mg/kg/d) group. […] The respective drugs were administrated by gavage to rats in the groups of PFD and AKF-PD from one day prior to the procedure to 14 days post surgical procedure. Normal saline was administrated in a similar fashion to the rats in the groups of disease model. The animals were sacrificed 14 days after surgical procedure and their kidney were removed for pathological (HE staining) examination.

[3] = tested on: Rat Pulmonary Fibroblasts; experiment: MTT proliferation assay, rat pulmonary fibroblasts; type: cell-based; details: for order of inhibitory effect: rat pulmonary fibroblasts
Protocol: as §1, with “(AKF-PD) or 1-(3′-bromophenyl)-5-Methyl-2(1H)-Pyridone or PIRFENIDONE (PFD)” for “(AKF-PD) or PIRFENIDONE (PFD)”, “well) at 24, or 48” for “well) at 12, 22, or 48”

[4] = tested on: ICR mice injected with bleomycin; experiment: Bleomycin-induced mouse pulmonary fibrosis, histological score of lung tissue; type: in vivo; details: AKF-PD and PFD 500 mg/kg, captopril 12.5 mg/kg by gavage day 1 to 28, Szapiel's method
Protocol: Under regular care condition, 7-10 weeks old, male, institute of cancer research (ICR) mice, weight 28-39 g, were randomly grouped as normal control, disease, disease/AKF-PD, disease/PFD and disease Captopril group.
Control group was injected with normal saline once day from day 2 to 15 days. Disease, disease/AKF-PD, disease/PFD and disease/captopril groups were injected with bleomycin once day from day 2 to 15. Control and disease groups were given 0.5% CMC by gavage once a day from day 1 to day 28. 500 mg/kg of AKF-PD CMC suspension and PD CMC suspension and 12.5 mg/kg captopril in saline were administered to respective groups by gavage once day from day 1 to day 28. All animals were sacrificed on day 29 and their lungs were removed for pathological (HE staining) examination.
Histological scoring for the lung tissue was done according Szapiel's method.

Human Stellate Cells = experiment: MTT proliferation assay, human stellate cells; type: cell-based
Protocol: as §1, with “at 12, 24, or 48” for “at 12, 22, or 48”, “MTT was then measured with” for “MTT was measured with”

| Structure (SMILES) | Optical Density at 570 nm ([1]; 100 μg/ml, 12 h) | Optical Density at 570 nm ([1]; 100 μg/ml, 24 h) | Optical Density at 570 nm ([1]; 100 μg/ml, 48 h) | Optical Density at 570 nm ([1]; 500 μg/ml, 12 h) | Optical Density at 570 nm ([1]; 500 μg/ml, 24 h) | Optical Density at 570 nm ([1]; 500 μg/ml, 48 h) | Histological Score for Interstitial Compartment [2] | Optical Density at 570 nm ([3]; 100 μg/ml, 24 h) | Optical Density at 570 nm ([3]; 100 μg/ml, 48 h) | Optical Density at 570 nm ([3]; 500 μg/ml, 24 h) | Optical Density at 570 nm ([3]; 500 μg/ml, 48 h) | Optical Density at 570 nm ([3]; 1000 μg/ml, 24 h) | Optical Density at 570 nm ([3]; 1000 μg/ml, 48 h) | order of inhibitory effect [3] | Histological Score for Lung Tissue, Mean [4] | Optical Density at 570 nm (Human Stellate Cells; 100 μg/ml, 12 h) | Optical Density at 570 nm (Human Stellate Cells; 100 μg/ml, 24 h) | Optical Density at 570 nm (Human Stellate Cells; 100 μg/ml, 48 h) | Optical Density at 570 nm (Human Stellate Cells; 500 μg/ml, 12 h) | Optical Density at 570 nm (Human Stellate Cells; 500 μg/ml, 24 h) | further results |
| --- | --- | --- | --- | --- | --- | --- | --- | --- | --- | --- | --- | --- | --- | --- | --- | --- | --- | --- | --- | --- | --- |
| Cc1ccc(=O)n(-c2ccccc2)c1 [PFD, 5-methyl-1-phenyl-2(1H)-pyridone, reference compound] | 0.346 ± 0.006 | 0.584 ± 0.005 | 0.810 ± 0.006 | 0.343 ± 0.004 | 0.577 ± 0.003 | 0.766 ± 0.004 | 8.06 ± 2.41 | 0.2023 ± 0.0169 | 0.1864 ± 0.0530 | 0.1887 ± 0.0130 | 0.1459 ± 0.0255 | 0.1797 ± 0.0166 | 0.1269 ± 0.0302 | AKF-PD>AKF-BR>pirfenidone | 2.0909 | 0.206 ± 0.003 | 0.371 ± 0.001 | 0.447 ± 0.003 | 0.202 ± 0.001 | 0.345 ± 0.002 | Optical Density at 570 nm (Human Stellate Cells; 500 μg/ml, 48 h): 0.413 ± 0.001***^++; Optical Density at 570 nm (Human Stellate Cells; 1000 μg/ml, 12 h): 0.201 ± 0.001; Optical Density at 570 nm (Human Stellate Cells; 1000 μg/ml, 24 h): 0.330 ± 0.001***^++; Optical Density at 570 nm (Human Stellate Cells; 1000 μg/ml, 48 h): 0.402 ± 0.001***^++; Optical Density at 570 nm (Human Stellate Cells; 2500 μg/ml, 12 h): 0.198 ± 0.001; Optical Density at 570 nm (Human Stellate Cells; 2500 μg/ml, 24 h): 0.278 ± 0.001***^+; Optical Density at 570 nm (Human Stellate Cells; 2500 μg/ml, 48 h): 0.306 ± 0.002***^+++ |
| Cc1ccc(=O)n(-c2cccc(F)c2)c1 [AKF-PD, 1-(3′-fluorophenyl)-5-methyl-2(1H)-pyridone] | 0.344 ± 0.004 | 0.583 ± 0.004 | 0.807 ± 0.007 | 0.344 ± 0.005 | 0.573 ± 0.004 | 0.758 ± 0.010 | 7.11 ± 1.38 | 0.1467 ± 0.0138 | 0.1369 ± 0.0115 | 0.1258 ± 0.0119 | 0.1214 ± 0.0234 | 0.1130 ± 0.0163 | 0.1119 ± 0.0285 | AKF-PD>AKF-BR>pirfenidone | 2.0000 | 0.202 ± 0.001 | 0.366 ± 0.002 | 0.442 ± 0.006 | 0.202 ± 0.001 | 0.341 ± 0.003 | Optical Density at 570 nm ([1]; 1000 μg/ml, 12 h): 0.343 ± 0.004; Optical Density at 570 nm ([1]; 1000 μg/ml, 24 h): 0.553 ± 0.004; Optical Density at 570 nm ([1]; 1000 μg/ml, 48 h): 0.704 ± 0.003; Optical Density at 570 nm ([1]; 2500 μg/ml, 12 h): 0.346 ± 0.005; Optical Density at 570 nm ([1]; 2500 μg/ml, 24 h): 0.502 ± 0.003; Optical Density at 570 nm ([1]; 2500 μg/ml, 48 h): 0.646 ± 0.006; anti-proliferative potency compared with PIRFENIDONE ([1]; human peritoneal mesothelial cells): more potent anti-proliferative agent than PIRFENIDONE; suppression of proliferation of rat pulmonary fibroblasts [3]: could suppress proliferation of rat pulmonary fibroblasts; Optical Density at 570 nm (Human Stellate Cells; 500 μg/ml, 48 h): 0.406 ± 0.002; Optical Density at 570 nm (Human Stellate Cells; 1000 μg/ml, 12 h): 0.198 ± 0.001; Optical Density at 570 nm (Human Stellate Cells; 1000 μg/ml, 24 h): 0.312 ± 0.003; Optical Density at 570 nm (Human Stellate Cells; 1000 μg/ml, 48 h): 0.385 ± 0.004; Optical Density at 570 nm (Human Stellate Cells; 2500 μg/ml, 12 h): 0.195 ± 0.002; Optical Density at 570 nm (Human Stellate Cells; 2500 μg/ml, 24 h): 0.273 ± 0.005; Optical Density at 570 nm (Human Stellate Cells; 2500 μg/ml, 48 h): 0.246 ± 0.001; anti-proliferative potency compared with PIRFENIDONE (Human Stellate Cells; human stellate cells): more potent anti-proliferative agent than PIRFENIDONE |
